Results: patent US8940350B2, “Cereal compositions comprising high-potency sweeteners” (The Coca-Cola Company, priority 2005, dated 2015)

assay: Rate of dissolution in H2O at 25° C. of rebaudioside A polymorph and amorphous forms; format: physicochemical; settings: grade in words

| Substance | Rate of dissolution in H2O at 25° C. |
| --- | --- |
| rebaudioside A [Form 1] | Very low |
| rebaudioside A [Form 4] | High |
| rebaudioside A [Form 2] | Intermediate |
| rebaudioside A [Form 3] | High |
